Laboratory results published in PubChem BioAssay AID270 (DTP/NCI, 2004).
Several values for one entry are separate records, joined by “and”; a condition that tells them apart may be missing. Equal entries are not always repeated. Inconclusive results are not listed.

System: BDF1 mice, s.c. Lewis lung carcinoma, T/C %
Experiment: NCI In Vivo Anticancer Drug Screen. Data for tumor model Lewis Lung Carcinoma (subcutaneous) in B6D2F1 (BDF1) mice
Outline: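 Antitumor effect in vivo is scored from survival or tumor burden, reported as treated relative to vehicle controls.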

[1] = endpoint: mean tumor weight, dose: 50.0 mg/kg/injection, schedule: Q01DX011 (ip), vehicle: saline, higher = larger tumour
[2] = endpoint: mean tumor weight, dose: 100.0 mg/kg/injection, schedule: Q01DX011 (ip), vehicle: saline, higher = larger tumour
[3] = endpoint: median survival time, dose: 100.0 mg/kg/injection, schedule: Q01DX009 (ip), vehicle: saline with Tween-80, higher = longer survival
[4] = endpoint: median survival time, dose: 200.0 mg/kg/injection, schedule: Q01DX009 (ip), vehicle: saline with Tween-80, higher = longer survival

`CN(C)/N=N/c1nc[nH]c1C(N)=O` was tested, and the T/C (endpoint: mean tumor weight, dose: 12.5 mg/kg/injection, schedule: Q01DX011 (ip), vehicle: saline, higher = larger tumour) was 76 % of control, the T/C (endpoint: mean tumor weight, dose: 25.0 mg/kg/injection, schedule: Q01DX011 (ip), vehicle: saline, higher = larger tumour) was 108 % of control and the T/C (endpoint: mean tumor weight, dose: 48.0 mg/kg/injection, schedule: Q01DX011 (ip), vehicle: carboxymethylcellulose (CMC), higher = larger tumour) was 111 % of control. For the same compound, the T/C [1] was 80 % of control, the T/C (endpoint: mean tumor weight, dose: 95.0 mg/kg/injection, schedule: Q01DX011 (ip), vehicle: carboxymethylcellulose (CMC), higher = larger tumour) was 117 % of control and the T/C (endpoint: mean tumor weight, dose: 100.0 mg/kg/injection, schedule: Q01DX010 (ip), vehicle: saline, higher = larger tumour) was 44 % of control. The T/C [2] was 42 % of control, the T/C (endpoint: mean tumor weight, dose: 143.0 mg/kg/injection, schedule: Q01DX011 (ip), vehicle: carboxymethylcellulose (CMC), higher = larger tumour) was 78 % of control and the T/C (endpoint: mean tumor weight, dose: 200.0 mg/kg/injection, schedule: Q01DX010 (ip), vehicle: saline, higher = larger tumour) was 51 % of control. The T/C (endpoint: median survival time, dose: 27.0 mg/kg/injection, schedule: Q01DX015 (ip), vehicle: carboxymethylcellulose (CMC), higher = longer survival) was 94 % of control and 122 % of control, the T/C (endpoint: median survival time, dose: 37.5 mg/kg/injection, schedule: Q01DX009 (ip), vehicle: Klucel (hydroxypropylcellulose) (HPC), higher = longer survival) was 97 % of control and 116 % of control and the T/C (endpoint: median survival time, dose: 37.5 mg/kg/injection, schedule: Q01DX009 (ip), vehicle: saline with Tween-80, higher = longer survival) was 106 % of control and 118 % of control. The T/C (endpoint: median survival time, dose: 40.0 mg/kg/injection, schedule: Q01DX015 (ip), vehicle: carboxymethylcellulose (CMC), higher = longer survival) was 92 % of control, the T/C (endpoint: median survival time, dose: 60.0 mg/kg/injection, schedule: Q01DX015 (ip), vehicle: carboxymethylcellulose (CMC), higher = longer survival) was 102 % of control and the T/C (endpoint: median survival time, dose: 75.0 mg/kg/injection, schedule: Q01DX009 (ip), vehicle: Klucel (hydroxypropylcellulose) (HPC), higher = longer survival) was 110 % of control. The T/C (endpoint: median survival time, dose: 75.0 mg/kg/injection, schedule: Q01DX009 (ip), vehicle: saline with Tween-80, higher = longer survival) was 118 % of control, the T/C [3] was 118 % of control and the T/C (endpoint: median survival time, dose: 150.0 mg/kg/injection, schedule: Q01DX009 (ip), vehicle: Klucel (hydroxypropylcellulose) (HPC), higher = longer survival) was 122 % of control. The T/C (endpoint: median survival time, dose: 150.0 mg/kg/injection, schedule: Q01DX009 (ip), vehicle: saline with Tween-80, higher = longer survival) was 92 % of control, the T/C [4] was 113 % of control and the T/C (endpoint: median survival time, dose: 300.0 mg/kg/injection, schedule: Q01DX009 (ip), vehicle: Klucel (hydroxypropylcellulose) (HPC), higher = longer survival) was 95 % of control. For the same compound, the T/C (endpoint: median survival time, dose: 450.0 mg/kg/injection, schedule: Q01DX001 (ip), vehicle: carboxymethylcellulose (CMC), higher = longer survival) was 93 % of control, the T/C (endpoint: median survival time, dose: 670.0 mg/kg/injection, schedule: Q01DX001 (ip), vehicle: carboxymethylcellulose (CMC), higher = longer survival) was 96 % of control and the T/C (endpoint: median tumor weight (est.), dose: 23.7 mg/kg/injection, schedule: Q01DX009 (ip), vehicle: carboxymethylcellulose (CMC), higher = larger tumour) was 102 % of control. The T/C (endpoint: median tumor weight (est.), dose: 24.0 mg/kg/injection, schedule: Q01DX009 (ip), vehicle: carboxymethylcellulose (CMC), higher = larger tumour) was 74 % of control and 77 % of control, the T/C (endpoint: median tumor weight (est.), dose: 37.5 mg/kg/injection, schedule: Q01DX009 (ip), vehicle: saline with Tween-80, higher = larger tumour) was 90 % of control and the T/C (endpoint: median tumor weight (est.), dose: 47.0 mg/kg/injection, schedule: Q01DX009 (ip), vehicle: carboxymethylcellulose (CMC), higher = larger tumour) was 99 % of control. The T/C (endpoint: median tumor weight (est.), dose: 47.5 mg/kg/injection, schedule: Q01DX009 (ip), vehicle: carboxymethylcellulose (CMC), higher = larger tumour) was 50 % of control, the T/C (endpoint: median tumor weight (est.), dose: 48.0 mg/kg/injection, schedule: Q01DX009 (ip), vehicle: carboxymethylcellulose (CMC), higher = larger tumour) was 70 % of control and the T/C (endpoint: median tumor weight (est.), dose: 75.0 mg/kg/injection, schedule: Q01DX009 (ip), vehicle: saline with Tween-80, higher = larger tumour) was 73 % of control. For the same compound, the T/C (endpoint: median tumor weight (est.), dose: 95.0 mg/kg/injection, schedule: Q01DX009 (ip), vehicle: carboxymethylcellulose (CMC), higher = larger tumour) was 79 % of control and 82 % of control and 99 % of control, the T/C (endpoint: median tumor weight (est.), dose: 150.0 mg/kg/injection, schedule: Q01DX009 (ip), vehicle: saline with Tween-80, higher = larger tumour) was 70 % of control and the T/C (endpoint: median tumor weight (est.), dose: 300.0 mg/kg/injection, schedule: Q01DX009 (ip), vehicle: saline with Tween-80, higher = larger tumour) was 36 % of control.
In the case of `Nc1nc2nc[nH]c2c(=O)[nH]1`, the T/C (endpoint: mean tumor weight, dose: 6.25 mg/kg/injection, schedule: Q01DX010 (ip), vehicle: saline, higher = larger tumour) is reported as 73 % of control, the T/C (endpoint: mean tumor weight, dose: 12.5 mg/kg/injection, schedule: Q01DX010 (ip), vehicle: saline, higher = larger tumour) is reported as 71 % of control and the T/C (endpoint: mean tumor weight, dose: 25.0 mg/kg/injection, schedule: Q01DX010 (ip), vehicle: saline, higher = larger tumour) is reported as 96 % of control. The T/C (endpoint: mean tumor weight, dose: 50.0 mg/kg/injection, schedule: Q01DX010 (ip), vehicle: saline, higher = larger tumour) was 71 % of control, the T/C [1] was 82 % of control and the T/C [2] was 80 % of control.
For `Cc1cccc(NC(=O)N(CCCl)N=O)c1`, the T/C (endpoint: median survival time, dose: 0.38 mg/kg/injection, schedule: Q01DX009 (ip), vehicle: saline with Tween-80, higher = longer survival) was 96 % of control, the T/C (endpoint: median survival time, dose: 0.75 mg/kg/injection, schedule: Q01DX009 (ip), vehicle: saline with Tween-80, higher = longer survival) was 102 % of control and the T/C (endpoint: median survival time, dose: 3.0 mg/kg/injection, schedule: Q01DX009 (ip), vehicle: saline with Tween-80, higher = longer survival) was 92 % of control.
With `Cc1nc(N)c(C)c(C(=O)O)n1` the T/C (endpoint: median survival time, dose: 50.0 mg/kg/injection, schedule: Q01DX009 (ip), vehicle: water, higher = longer survival) was 113 % of control, the T/C (endpoint: median survival time, dose: 100.0 mg/kg/injection, schedule: Q01DX009 (ip), vehicle: water, higher = longer survival) was 117 % of control and the T/C (endpoint: median survival time, dose: 200.0 mg/kg/injection, schedule: Q01DX009 (ip), vehicle: water, higher = longer survival) was 116 % of control.
With `CC(=O)NNC(=O)c1ccccc1CO` the T/C (endpoint: median survival time, dose: 25.0 mg/kg/injection, schedule: Q01DX009 (ip), vehicle: saline with Tween-80, higher = longer survival) was 95 % of control, the T/C (endpoint: median survival time, dose: 50.0 mg/kg/injection, schedule: Q01DX009 (ip), vehicle: saline with Tween-80, higher = longer survival) was 95 % of control and the T/C [3] was 98 % of control. For the same compound, the T/C [4] was 93 % of control.
For `CC(C)=CC(=O)OCC[N+](C)(C)C`, the T/C (endpoint: median survival time, dose: 1.56 mg/kg/injection, schedule: Q01DX009 (ip), vehicle: saline, higher = longer survival) was 96 % of control, the T/C (endpoint: median survival time, dose: 3.12 mg/kg/injection, schedule: Q01DX009 (ip), vehicle: saline, higher = longer survival) was 103 % of control and the T/C (endpoint: median survival time, dose: 12.5 mg/kg/injection, schedule: Q01DX009 (ip), vehicle: saline, higher = longer survival) was 103 % of control. The T/C (endpoint: median survival time, dose: 25.0 mg/kg/injection, schedule: Q01DX009 (ip), vehicle: saline, higher = longer survival) was 113 % of control.
